# “Also recorded” adds a separate entry of the source.
# Tested on: pseudomonas aerigenosa (ATCC 27853) biofilm
# Test: Biofouling test on enhanced tube and smooth tube in laboratory scale cooling tower system (modified P-U-L-S-E fouling monitor)
# Type: cell-based
SMILES,effect on inhibiting and/or removing biofilm,reduction of biofilm deposits (summary of test results)
"BrBr [bromine, reference compound]",little effect,not effective alone
[O][Cl+][O-] [chlorine dioxide],effective; also recorded: more effective than stabilized bromine,reduce the deposit of biofilm
